Assay results reported in US8946266B2, “Substituted triazole and imidazole derivatives as gamma secretase modulators” (Janssen Pharmaceuticals, Inc., priority 2009, dated 2015).
Where two headings read alike, the source gives them in different places.

Columns and labels:
Aβtotal = assay: γ-secretase-modulating activity, Method 2: Aβtotal Alphalisa in supernatant of SKNBE2 cells carrying APP 695-wild type (Table 3b); type: cell-based; conditions: overnight, read-out: IC50 Aβtot
Method: (§1) Screening was carried out using SKNBE2 cells carrying the APP 695-wild type, grown in Dulbecco's Modified Eagle's Medium/Nutrient mixture F-12 (DMEM/NUT-mix F-12) (HAM) provided by Invitrogen (cat no. 10371-029) containing 5% Serum/Fe supplemented with 1% non-essential amino acids, 1-glutamine 2 mM, Hepes 15 mM, penicillin 50 U/ml (units/ml) en streptomycin 50 μg/ml. Cells were grown to near confluency.
(§2) The screening was performed using a modification of the assay as described in Citron et al (1997) Nature Medicine 3: 67. Briefly, cells were plated in a 384-well plate at 10^4 cells/well in Ultraculture (Lonza, BE12-725F) supplemented with 1% glutamine (Invitrogen, 25030-024), 1% non-essential amino acid (NEAA), penicillin 50 U/ml en streptomycin 50 μg/ml in the presence of test compound at different test concentrations. The cell/compound mixture was incubated overnight at 37° C., 5% CO2. The next day the media were assayed by two sandwich immuno-assays, for Aβ42 and Aβtotal.
(§3) Aβtotal and Aβ42 concentrations were quantified in the cell supernatant using the Aphalisa technology (Perkin Elmer). Alphalisa is a sandwich assay using biotinylated antibody attached to streptavidin coated donorbeads and antibody conjugated to acceptor beads. In the presence of antigen, the beads come into close proximity. The excitation of the donor beads provokes the release of singlet oxygen molecules that trigger a cascade of energy transfer in the acceptor beads, resulting in light emission. To quantify the amount of Aβ42 in the cell supernatant, monoclonal antibody specific to the C-terminus of Aβ42 (JRF/cAβ42/26) was coupled to the receptor beads and biotinylated antibody specific to the N-terminus of Aβ (JRF/AβN/25) was used to react with the donor beads. To quantify the amount of Aβ total in the cell supernatant, monoclonal antibody specific to the N-terminus of Aβ (JRF/AβN/25) was coupled to the receptor beads and biotinylated antibody specific to the mid region of Aβ (biotinylated 4G8) was used to react with the donor beads.
(§4) The sigmoidal dose response curves were analyzed using non-linear regression analysis with percentage of the control plotted against the log concentration of the compound. A 4-parameter equation was used to determine the IC50.
(§5) The IC50 values are shown in Table 3b (Aβtot means Aβtotal).

Aβ42 = assay: γ-secretase-modulating activity, Method 2: Aβ42 Alphalisa in supernatant of SKNBE2 cells carrying APP 695-wild type (Table 3b); type: cell-based; conditions: overnight
Method: as §1, §2, §3
To obtain the values reported in Table 3b, the data were calculated as percentage of the maximum amount of amyloid Beta 42 measured in the absence of the test compound.
as §4, §5

SMILES	IC50 (Aβtotal; Homo sapiens) [nM]	IC50 (Aβ42; Homo sapiens) [nM]	IC50 (Aβtotal) [nM]	IC50 (Aβ42) [nM]
COc1cc(-c2nc3n(n2)CCCC3(O)c2ccc(F)cc2C)ccc1-n1cnc(C)c1 (stereo not shown) [Compound 269]	> 10000	148	–	–
COc1cc(-c2n[nH]c(-c3ccc(F)cc3)n2)ccc1-n1cnc(C)c1 [Compound 4]	> 10000	646	–	–
Cc1cn(-c2ccc(-c3nc(Nc4ccc(F)cc4C(F)(F)F)n(C)n3)cc2)cn1 [Compound 149]	–	–	> 10000	1700
COc1ccc(C(F)(F)F)c(Nc2nc(-c3ccc(-n4cnc(C)c4)c(OC)c3)nn2C)c1 [Compound 218]	–	–	> 10000	14
COc1cc(-c2nc(Nc3c(F)ccc(Br)c3F)n(C)n2)ccc1-n1cnc(C)c1 [Compound 127]	–	–	> 10000	66
COc1cc(-c2nc(-c3ccc4ccccc4n3)n(C)n2)ccc1-n1cnc(C)c1 [Compound 326]	–	–	> 10000	3090
COc1cccc(-c2nc(-c3ccc(-n4cnc(C)c4)c(OC)c3)n(C)n2)c1 [Compound 56]	–	–	> 10000	> 10000
COc1cc(-c2n[nH]c(C(CCCCCl)c3ccccc3C(F)(F)F)n2)ccc1-n1cnc(C)c1 (stereo not shown) [Compound 70]	–	–	> 10000	309
COc1cc(-c2nc(C3(c4ccc(F)cc4)CC3)nn2C)ccc1-n1cnc(C)c1 [Compound 60]	–	–	> 10000	8510
COc1cc(-c2nc3n(n2)CCN(C(C)=O)C3c2ccccc2C(F)(F)F)ccc1-n1cnc(C)c1 (stereo not shown) [Compound 276]	> 10000	832	–	–
CCn1nc(-c2ccc(-n3cnc(C)c3)c(OC)c2)nc1Nc1ccccc1C(F)(F)F [Compound 147]	–	–	> 10000	41
COc1cc(-c2nc(/C=C/c3ccc(F)cc3)n(C)n2)ccc1-n1cnc(C)c1 [Compound 45]	–	–	> 10000	85
COc1cc(-c2nc(-c3ccc(F)cc3)n(C(C)C)n2)ccc1-n1cnc(C)c1 [Compound 83]	–	–	> 10000	257
COc1cc(Nc2nc(-c3ccc(-n4cnc(C)c4)c(OC)c3)nn2C)ccc1F [Compound 193]	–	–	> 10000	63
COc1cc(-c2nc(-c3ccccc3C(F)(F)F)nn2C)ccc1-n1cnc(C)c1 [Compound 54]	–	–	> 10000	4170
COc1cc(-c2nc3n(n2)CCN(C(C)=O)C3c2cccc(C(F)(F)F)c2)ccc1-n1cnc(C)c1 (stereo not shown) [Compound 277]	–	–	> 10000	661
COc1cc(-c2nc3n(n2)CCCOC3c2ccc(F)cc2)ccc1-n1cnc(C)c1 (stereo not shown) [Compound 284]	–	–	> 10000	229
COc1cc(-c2nc(Nc3cccnc3)n(C)n2)ccc1-n1cnc(C)c1 [Compound 237]	–	–	> 10000	3160
COc1cc(-c2nc(Nc3cc(F)c(F)c(F)c3)nn2C)ccc1-n1cnc(C)c1 [Compound 61]	–	–	> 10000	4790

SMILES	IC50 (Aβtotal; Homo sapiens) [nM]	IC50 (Aβ42; Homo sapiens) [nM]	IC50 (Aβtotal) [nM]	IC50 (Aβ42) [nM]
COc1cc(-c2nc3n(n2)CCC(c2ccccc2C(F)(F)F)N3)ccc1-n1cnc(C)c1 (stereo not shown) [Compound 274]	8710	155	–	–
COc1cc(-c2n[nH]c(C3CCCCC3)n2)ccc1-n1cnc(C)c1 [Compound 33]	–	–	> 10000	269
COc1cc(-c2nc(C3CCCCC3)n(C)n2)ccc1-n1cnc(C)c1 [Compound 34]	–	–	> 10000	240
COc1cc(-c2nc(-c3cc(Cl)ccc3C)n[nH]2)ccc1-n1cnc(C)c1 [Compound 297]	–	–	> 10000	263
COc1cc(-c2nc(C)n(-c3cccc(C(F)(F)F)c3)n2)ccc1-n1cnc(C)c1 [Compound 30]	–	–	> 10000	295
COc1cc(-c2nc(N3CC(C)OC(C)C3)n(C)n2)ccc1-n1cnc(C)c1 (stereo not shown) [Compound 35]	–	–	> 10000	776
COc1cc(-c2nc(Nc3ccc(C#N)cc3)n(C)n2)ccc1-n1cnc(C)c1 [Compound 225]	–	–	> 10000	1440
COc1cc(-c2nc(Nc3ccc(F)cc3C(F)(F)F)nn2C)ccc1-n1cnc(C)c1 [Compound 16]	–	–	> 10000	309
COc1cc(-c2nc(N3CCOCC3)n(-c3ccc(F)cc3)n2)ccc1-n1cnc(C)c1 [Compound 71]	> 10000	1150	–	–
COc1cc(-c2nc(Nc3cccn(C)c3=O)n(C)n2)ccc1-n1cnc(C)c1 [Compound 243]	–	–	> 10000	8320
COc1cc(-c2nc(/C=C/c3ccc(F)cc3)nn2C)ccc1-n1cnc(C)c1 [Compound 59]	–	–	> 10000	2950
COc1cc(-c2nc3n(n2)CCCC3c2ccccc2Cl)ccc1-n1cnc(C)c1 (stereo not shown) [Compound 256]	–	–	> 10000	21
COc1cc(-c2nc3n(n2)CCOC3c2ccccc2OC(F)(F)F)ccc1-n1cnc(C)c1 (stereo not shown) [Compound 346]	–	–	> 10000	95
COc1cc(-c2nc3n(n2)CCCC32CCCCC2)ccc1-n1cnc(C)c1 [Compound 270]	–	–	> 10000	170
COc1cc(-c2nc3c(-c4cccc(C(F)(F)F)c4)nccn3n2)ccc1-n1cnc(C)c1 [Compound 293]	–	–	> 10000	2340
Cc1cn(-c2ccc(-c3nc(Nc4cc(C(F)(F)F)ccc4F)n(C)n3)cc2OC(F)(F)F)cn1 [Compound 139]	–	–	> 10000	794
COc1cc(-c2nc(Nc3c(F)ccc(Cl)c3F)n(C)n2)ccc1-n1cnc(C)c1 [Compound 122]	–	–	> 15000	66
COc1cc(-c2nc(Nc3cc(F)c(F)cc3Cl)n(C)n2)ccc1-n1cnc(C)c1 [Compound 121]	–	–	> 10000	123
COc1cc(-c2nc(Nc3cccc(NC(C)=O)c3)n(C)n2)ccc1-n1cnc(C)c1 [Compound 222]	–	–	> 10000	1150

Other lines, results leading:

IC50 (Aβtotal; Homo sapiens) [nM]	IC50 (Aβ42; Homo sapiens) [nM]	IC50 (Aβtotal) [nM]	IC50 (Aβ42) [nM]	SMILES
–	–	> 10000	107	COc1cc(-c2nc3n(n2)CCOC3c2cccc(F)c2C)ccc1-n1cnc(C)c1 (stereo not shown) [Compound 345]
–	–	> 10000	151	COc1cc(-c2nc3c(-c4ccccc4OC(F)(F)F)cccn3n2)ccc1-n1cnc(C)c1 [Compound 288]
–	–	> 10000	25	COc1cc(Nc2nc(-c3ccc(-n4cnc(C)c4)c(OC)c3)nn2C)c(F)c(C(F)(F)F)c1 [Compound 202]
–	–	12600	851	COc1cc(-c2nc(N3CCCC3)n(C(C)c3ccc(F)cc3)n2)ccc1-n1cnc(C)c1 (racemic) [Compound 76]
–	–	> 10000	151	COc1cc(-c2nc(Nc3cccc(F)c3F)n(C)n2)ccc1-n1cnc(C)c1 [Compound 124]
–	–	> 10000	355	COc1cc(-c2nc3c(-c4cccc(OC(F)(F)F)c4)cccn3n2)ccc1-n1cnc(C)c1 [Compound 287]
–	–	> 10000	224	COc1cc(-c2nc(N3CCc4ccccc4C3)n(C)n2)ccc1-n1cnc(C)c1 [Compound 81]
–	–	> 10000	851	COc1cc(-c2nc(Cc3ccc(F)cc3C(F)(F)F)nn2C)ccc1-n1cnc(C)c1 [Compound 57]
–	–	> 10000	> 10000	COc1cc(-c2nc(-c3ccc(-n4cnc(C)c4)c(OC)c3)n(C)n2)ccc1Cl [Compound 58]
–	–	3240	302	COc1cc(-c2nc(C3(c4ccc(F)cc4)CC3)n(C)n2)ccc1-n1cnc(C)c1 [Compound 47]
–	–	6310	36	COc1cc(-c2nc(Nc3cccc(Cl)c3)n(C)n2)ccc1-n1cnc(C)c1 [Compound 103]
–	–	7760	151	COc1cc(-c2nc(Nc3ccc(Cl)cc3)n(C)n2)ccc1-n1cnc(C)c1 [Compound 108]
–	–	6460	676	COc1cc(-c2nc(N3CCCC(C(F)(F)F)C3)n(C(C)C)n2)ccc1-n1cnc(C)c1 (racemic) [Compound 75]
–	–	6460	251	COc1cc(-c2nc(N3CCC(c4cccc(C(F)(F)F)c4)C3)n(C(C)C)n2)ccc1-n1cnc(C)c1 (racemic) [Compound 74]
–	–	8130	363	COc1cc(-c2nc(Oc3ccccc3Cl)n(C(C)C)n2)ccc1-n1cnc(C)c1 [Compound 247]
–	–	7410	20	COc1cc(-c2nc(Nc3cc(Cl)ccc3C)n(C)n2)ccc1-n1cnc(C)c1 [Compound 174]
–	–	7760	603	COc1cc(-c2nc(N3CCc4ccccc4C3)n(C(C)C)n2)ccc1-n1cnc(C)c1 [Compound 82]
–	–	851	3090	COc1cc(-c2nc(C(=O)Nc3cccc(C(F)(F)F)c3)n(C)n2)ccc1-n1cnc(C)c1 [Compound 329]
